Activity and melting point data for 37 compounds are collected here from patent publication US20030191323A1, “Hypoglycemic agent” (Ajinomoto Co., Inc., priority 2000, published 2003).

The first data set relates to Rat skeletal muscle cell strain L6 cells. In words: Effect of accelerating the glucose uptake in cultured skeletal muscle cells ([3H]-2-deoxyglucose uptake). In kind it is cell-based. The conditions noted are these: 10 min, 10 μM compound, cultured overnight, 2DG uptake in L6 myotubes, 37° C. 10 minutes, compared with the control group. The method, then:
Effect of accelerating the glucose uptake in cultured skeletal muscle cells: Method: Rat skeletal muscle cell strain “L6 cells” in a confluent state was cultured in DME medium containing 2% of fetal calf serum for one week to differentiate into myotubes. The medium was replaced with the DME medium containing a compound synthesized in each of the above Reference Examples. After culturing overnight followed by the thorough washing with HEPES buffer solution, an HEPES buffer solution containing 37 kBq/ml of 10 μM [3H]-2-deoxyglucose (2DG) was added thereto. After the culture at 37° C. for 10 minutes, the radioactivity of 2DG transmigrated into the cells was determined. The effect (%) of each compound on 2DG uptake was determined as compared with that in the control group.
Regarding `CCCCCC(=O)NS(=O)(=O)c1ccccc1NC(=O)c1cccc(OCc2ccc([N+](=O)[O-])cc2)c1` [compound 26, N-[2-[3-(4-Nitrobenzyloxy)benzamido]benzenesulfonyl]hexanamide], the activity at 10 µM came to 134%. Still for that read-out and setting: the value for `CCCCCC(=O)NS(=O)(=O)c1ccccc1NC(=O)c1cccc(OCc2ccc(OC)cc2)c1` [compound 30, N-[2-[3-(4-Methoxybenzyloxy)benzamido]benzenesulfonyl]hexanamide] was 131%; that for `CCCCCC(=O)NS(=O)(=O)c1ccccc1NC(=O)c1cccc(OCC2CCCCC2)c1` [compound 34, N-[2-(3-cyclohexylmethoxybenzamido)benzenesulfonyl]hexanamide] was 145%.

Take `CCCCCC(=O)NS(=O)(=O)c1ccccc1NC(=O)c1cccc(OCc2ccc(C(F)(F)F)cc2)c1` [compound 41, N-[2-[3-(4-Trifluoromethylbenzyloxy)benzamido]benzenesulfonyl]hexanamide]: the activity at 10 µM stood at 230%.

As to `CC/C=C/CC(=O)NS(=O)(=O)c1ccccc1NC(=O)c1ccc(C#Cc2ccccc2)cc1` [compound 54, Trans-N-[2-(4-phenylethynylbenzamido)benzenesulfonyl]-3-hexenamide], the activity at 10 µM was 118%.

Test system in a further data set: not given
Test: not given
Details: not given
For orientation: melting point means the temperature of the solid-liquid transition. Consider `O=C(NS(=O)(=O)c1ccccc1NC(=O)c1cccc(OCc2ccccc2)c1)Oc1ccccc1`, for which the melting point is 163 to 164 °C. The same measure, in the same setting: then `CCCCNC(=O)NS(=O)(=O)c1ccccc1NC(=O)c1cccc(OCc2ccccc2)c1`, with 177 to 178 °C; and `CCCCCCCCNC(=O)NS(=O)(=O)c1ccccc1NC(=O)c1cccc(OCc2ccccc2)c1`, with 124 to 125 °C; and `O=C(Nc1ccccc1S(=O)(=O)NC(=O)c1cccc(OCc2ccccc2)c1)c1cccc(OCc2ccccc2)c1` [compound 2, N-[2-(3-Benzyloxybenzamido)benzenesulfonyl]-3-benzyloxybenzamide], with 172 to 173 °C.

`O=C(Nc1ccccc1S(=O)(=O)NC(=O)c1ccccc1)c1cccc(OCc2ccccc2)c1` [compound 3, N-[2-(3-Benzyloxybenzamido)benzenesulfonyl]-benzamide]: the melting point was 201 to 202 °C. On the same count and under the same terms, the value for `CC(=O)NS(=O)(=O)c1ccccc1NC(=O)c1cccc(OCc2ccccc2)c1` [compound 4, N-[2-(3-Benzyloxybenzamido)benzenesulfonyl]acetamide] was 195 to 196 °C; that for `O=C(Nc1ccccc1S(=O)(=O)NC(=O)c1ccc(C(F)(F)F)cc1)c1cccc(OCc2ccccc2)c1` [compound 5, N-[2-(3-Benzyloxybenzamido)benzenesulfonyl]-4-trifluoromethylbenzamide] was 220 to 221 °C. Still for that read-out and setting: then `O=C(Nc1ccccc1S(=O)(=O)NC(=O)c1ccc([N+](=O)[O-])cc1)c1cccc(OCc2ccccc2)c1` [compound 6, N-[2-(3-benzyloxybenzamido)benzenesulfonyl]-4-nitrobenzamide], with 233 to 234 °C; and `COc1ccc(C(=O)NS(=O)(=O)c2ccccc2NC(=O)c2cccc(OCc3ccccc3)c2)cc1` [compound 7, N-[2-(3-benzyloxybenzamido)benzenesulfonyl]-4-methoxybenzamide], with 189 to 190 °C; and `CCCCCC(=O)NS(=O)(=O)c1ccccc1NC(=O)c1cccc(OCc2ccccc2)c1` [compound 9, N-[2-(3-Benzyloxybenzamido)benzenesulfonyl]-n-hexanamide], with 133 to 134 °C. The same measure, in the same setting: then `CCCCCCCCCC(=O)NS(=O)(=O)c1ccccc1NC(=O)c1cccc(OCc2ccccc2)c1` [compound 10, N-[2-(3-Benzyloxybenzamido)benzenesulfonyl]-decanamide], with 85 to 86 °C. Consider `CC(C)(C)C(=O)NS(=O)(=O)c1ccccc1NC(=O)c1cccc(OCc2ccc(C(C)(C)C)cc2)c1` [compound 14, N-[2-[3-(4-t-butylbenzyloxy)benzamido]benzenesulfonyl]pivalamide], for which the melting point was 193 to 194 °C. On to `CC(C)(C)c1ccc(COc2cccc(C(=O)Nc3ccccc3S(=O)(=O)NC(=O)/C=C/c3ccccc3)c2)cc1` [compound 15, N-[2-[3-(4-t-butylbenzyloxy)benzamido]benzenesulfonyl]cinnamamide], for which the melting point was in the range of 110 to 111 °C. `CCCCCCCCCC(=O)NS(=O)(=O)c1ccccc1NC(=O)c1ccc([N+](=O)[O-])c(OCc2ccccc2)c1` [compound 19, N-[2-(3-benzyloxy-4-nitrobenzamido)benzenesulfonyl]decanamide]: the melting point is 129 to 130 °C.

With `CCCCCC(=O)NS(=O)(=O)c1ccccc1NC(=O)c1cccc(OCc2ccc(Cl)cc2)c1` [compound 22, N-[2-[3-(4-Chlorobenzyloxy)benzamido]benzenesulfonyl]hexanamide], the melting point fell in the range of 148 to 149 °C. The same measure, in the same setting: then `CCCCCCCCCC(=O)NS(=O)(=O)c1ccccc1NC(=O)c1cccc(OCc2ccc(Cl)cc2)c1` [compound 23, N-[2-[3-(4-Chlorobenzyloxy)benzamido]benzenesulfonyl]decanamide], with 159 to 161 °C. As for `CC(=O)NS(=O)(=O)c1ccccc1NC(=O)c1cccc(OCc2ccc([N+](=O)[O-])cc2)c1` [compound 25, N-[2-[3-(4-Nitrobenzyloxy)benzamido]benzenesulfonyl]acetamide], the melting point is 189 to 192 °C. The same measure, in the same setting: then `CCCCCC(=O)NS(=O)(=O)c1ccccc1NC(=O)c1cccc(OCc2ccc([N+](=O)[O-])cc2)c1` [compound 26, N-[2-[3-(4-Nitrobenzyloxy)benzamido]benzenesulfonyl]hexanamide], with 138 to 141 °C; and `CCCCCCCCCC(=O)NS(=O)(=O)c1ccccc1NC(=O)c1cccc(OCc2ccc([N+](=O)[O-])cc2)c1` [compound 27, N-[2-[3-(4-nitrobenzyloxy)benzamido]benzenesulfonyl]decanamide], with 145 to 148 °C; and `COc1ccc(COc2cccc(C(=O)Nc3ccccc3S(=O)(=O)NC(C)=O)c2)cc1` [compound 29, N-[2-[3-(4-Methoxybenzyloxy)benzamido]benzenesulfonyl]acetamide], with 114 to 117 °C. Same read-out and setting: then `CCCCCC(=O)NS(=O)(=O)c1ccccc1NC(=O)c1cccc(OCc2ccc(OC)cc2)c1` [compound 30, N-[2-[3-(4-Methoxybenzyloxy)benzamido]benzenesulfonyl]hexanamide], with 154 to 157 °C; and `CCCCCCCCCC(=O)NS(=O)(=O)c1ccccc1NC(=O)c1cccc(OCc2ccc(OC)cc2)c1` [compound 31, N-[2-[3-(4-Methoxybenzyloxy)benzamido]benzenesulfonyl]decanamide], with 148 to 149 °C. `CC(=O)NS(=O)(=O)c1ccccc1NC(=O)c1cccc(OCC2CCCCC2)c1` [compound 33, N-[2-(3-Cyclohexylmethoxybenzamido)benzenesulfonyl]acetamide] registered a melting point of 164 to 167 °C. In the case of `CCCCCC(=O)NS(=O)(=O)c1ccccc1NC(=O)c1cccc(OCC2CCCCC2)c1` [compound 34, N-[2-(3-cyclohexylmethoxybenzamido)benzenesulfonyl]hexanamide], the melting point is 112 to 113 °C. For `CCCCCCCCCC(=O)NS(=O)(=O)c1ccccc1NC(=O)c1cccc(OCC2CCCCC2)c1` [compound 35, N-[2-(3-Cyclohexylmethoxybenzamido)benzenesulfonyl]decanamide], the melting point lay in the range of 124 to 127 °C. Compound `CC(=O)NS(=O)(=O)c1ccccc1NC(=O)c1cccc(OCc2ccc(C(C)(C)C)cc2)c1` [compound 36, N-[2-[3-(4-t-Butylbenzyloxy)benzamido]benzenesulfonyl]acetamide] returned a melting point of 190 to 191 °C. Still for that read-out and setting: the value for `CCCCCC(=O)NS(=O)(=O)c1ccccc1NC(=O)c1cccc(OCc2ccc(C(C)(C)C)cc2)c1` [compound 37, N-[2-[3-(4-t-Butylbenzyloxy)benzamido]benzenesulfonyl]hexanamide] was 163 to 164 °C; that for `CCCCCCCCCC(=O)NS(=O)(=O)c1ccccc1NC(=O)c1cccc(OCc2ccc(C(C)(C)C)cc2)c1` [compound 38, N-[2-[3-(4-t-Butylbenzyloxy)benzamido]benzenesulfonyl]decanamide] was 132 to 133 °C. The same measure, in the same setting: then `CCCCCC(=O)NS(=O)(=O)c1ccccc1NC(=O)c1cccc(OCc2ccc(C(F)(F)F)cc2)c1` [compound 41, N-[2-[3-(4-Trifluoromethylbenzyloxy)benzamido]benzenesulfonyl]hexanamide], with 142 to 143 °C; and `CCCCCCCCCC(=O)NS(=O)(=O)c1ccccc1NC(=O)c1cccc(OCc2ccc(C(F)(F)F)cc2)c1` [compound 42, N-[2-[3-(4-Trifluoromethylbenzyloxy)benzamido]benzenesulfonyl]decanamide], with 164 °C; and `CCCCCCCOc1cccc(C(=O)Nc2ccccc2S(=O)(=O)NC(C)=O)c1` [compound 44, N-[2-(3-Heptyloxybenzamido)benzenesulfonyl]acetamide], with 194 to 195 °C. Same read-out and setting: the value for `CCCCCCCOc1cccc(C(=O)Nc2ccccc2S(=O)(=O)NC(=O)CCCCC)c1` [compound 45, N-[2-(3-Heptyloxybenzamido)benzenesulfonyl]hexanamide] was 200 to 201 °C. Regarding `CC(=O)NS(=O)(=O)c1ccccc1NC(=O)c1ccc(C#Cc2ccccc2)cc1` [compound 48, N-[2-(4-Phenylethynylbenzamido)benzenesulfonyl]acetamide], the melting point is 214 to 215 °C. `CCCCCCCCCC(=O)NS(=O)(=O)c1ccccc1NC(=O)c1ccc(C#Cc2ccccc2)cc1` [compound 50, N-[2-(4-Phenylethynylbenzamido)benzenesulfonyl]decanamide] had a melting point of 155 to 156 °C. Same read-out and setting: then `CC(C)=CC(=O)NS(=O)(=O)c1ccccc1NC(=O)c1ccc(C#Cc2ccccc2)cc1` [compound 52, 3-Methyl-N-[2-(4-phenylethynylbenzamido)benzenesulfonyl]-2-butenamide], with 187 to 188 °C.

On to `C/C=C/C=C/C(=O)NS(=O)(=O)c1ccccc1NC(=O)c1ccc(C#Cc2ccccc2)cc1` [compound 53, Trans-N-[2-(4-phenylethynylbenzamido)benzenesulfonyl]-2,4-hexadienamide], for which the melting point is 208 to 209 °C.
